US5672603A, “Apoptosis regulating composition” (Otsuka Pharmaceutical Co., Ltd., priority 1991, dated 1997)
Numbered stars: 1 amine (or outer) side, 2 acyl side, 3 side chain; on linkers, the order of the positions; unused ones are H or OH. Bridge positions count the residues as written; N and C are the ends. Square brackets hold non-standard residues; d marks the D form. Peptide text beside a SMILES is read from it. I, II: the chains in the order shown. Actinocin(9to1) = Cc1c2oc3c(C)ccc(C(=O)[*:1])c3nc-2c(C(=O)[*:2])c(N)c1=O; NMeV = CN[C@H](C(=O)O)C(C)C; Sar = CNCC(=O)O

Assays:
nerve cells = settings: administration in advance; literature; cited from earlier work
PC12 cells = test: Effect on PC12 cells (morphology, phase contrast microscope); settings: NGF alone group, 0.3% FCS
Procedure: PC12 cells subcultured in Dulbecco's modified Eagle's medium (D-MEM) supplemented with 5% heat-inactivated (56° C., 30 minutes) horse serum and 10% fetal calf serum (FCS) were transferred onto collagen-coatedplastic Petri dishes (35 mm in diameter) at a concentration of 6×10^4 cells/3 ml medium.

sympathetic nerve cells = settings: literature; cited from earlier work
[1] = test system: aged rats with learning disorder; settings: literature; cited from earlier work
apoptosis = settings: literature; cited from earlier work
lymphocytic tumor cells = settings: X-ray radiation; literature; cited from earlier work
HL-60 cells [2] = settings: literature; cited from earlier work
[3] = test system: small intestine crypt cells; settings: literature; cited from earlier work
HL-60 cells [4] = test: Induction of differentiation of HL-60 cells (CD11b expression, flow cytometry); type: cell-based, human; parameters: reference not given here; settings: 30 μg/ml; 3 days; CD11b fluorescence
Procedure: (§1) HL-60 cells were cultivated in RPMI-1640 medium supplemented with 10% of FCS at 37° C. under 5% CO2, and the cell concentration was adjusted to 5×10^4 cells/ml.
(§2) Then, the above-mentioned medium containing 30 μg/ml of each test compound was added to each well of 6-well microplates (Costar), followed by 3 days of incubation at 37° C. under 5% CO2. In a control group, the above medium alone was added and incubation was performed in the same manner. Thereafter, each cultured cell suspension was sampled into an Eppendorf tube and, after staining with 0.2% trypan blue-containing phosphate buffer, viable cells were counted using a hematocytometer.
The above cells were adjusted to 1×10^7 cells/ml. To 100 μl of the cell suspension was added 5 μl of a solution of fluorescein isothiocyanate (FITC)-labeled anti-human CD11b antibody (Mol; Coulter) and the reaction was allowed to proceed on ice in the dark for 30 minutes. Then, cells were washed twice with PBS (phosphate-buffered saline; Nissui Pharmaceutical) containing 0.1% of BSA (bovine serum albumin; Sigma), finally suspended in 500 μl of the BSA-containing PBS and measured for fluorescence intensity by flow cytometry using Profile II (Coulter).

acute leukemia cells = settings: literature; cited from earlier work
HL-60 cells [5] = test: HL-60 cell growth inhibition, 3 days; type: cell-based; settings: Homo sapiens, HL-60, 72 h, 30 μg/ml, read-out: Cell growth inhibiting effect (%)
Procedure: as §1, §2

For “NGF: nerve growth factor (NGF, Wako Pure Chemical)”, the “Nerve cell death in development stage” value (nerve cells) is listed as “complete inhibition of nerve cell death”, the “Formation of nerve-like processes, NGF stimulation” value (PC12 cells) is listed as “formation of nerve-like processes” and the “Programmed death of sympathetic nerve cells” value (sympathetic nerve cells) is listed as “can inhibit programmed death of sympathetic nerve cells”. The “Recovery from learning disorder” value [1] was “can recover from learning disorder”.

For Cc1c2oc3c(C)ccc(C(=O)N[C@@H]4C(=O)N[C@H](C(C)C)C(=O)N5CCC[C@H]5C(=O)N(C)CC(=O)N(C)[C@@H](C(C)C)C(=O)O[C@@H]4C)c3nc-2c(C(=O)N[C@@H]2C(=O)N[C@H](C(C)C)C(=O)N3CCC[C@H]3C(=O)N(C)CC(=O)N(C)[C@@H](C(C)C)C(=O)O[C@@H]2C)c(N)c1=O [actinomycin D] (I: T[dV]P[Sar][NMeV] / II: T[dV]P[Sar][NMeV]; ester I:1-I:C, II:1-II:C; linker I:N-II:N via Actinocin(9to1)), the Repression of apoptosis (apoptosis) is given as “capable of repressing apoptosis”, the “Apoptosis of lymphocytic tumor cells” value (lymphocytic tumor cells) is given as “potentiates” and the “Apoptosis induction in HL-60 cells” value (HL-60 cells [2]) is given as “apoptosis induction”. The “Apoptosis induction in small intestine crypt cells” value [3] was “apoptosis induction”.

With COc1ccc(C(=O)N2CCN(c3ccc4c(c3)NC(=O)CC4)CC2)cc1OC [Compound 4, 7-[4-(3,4-Dimethoxybenzoyl)-1-piperazinyl]-3,4-dihydrocarbostyril] the “Induction of differentiation promoting effect” value (HL-60 cells [4]) was 383.

In the case of bcl-2 gene product: bcl-2 gene product, the Repression of apoptosis (apoptosis) is given as “repress apoptosis”.

For “GM-CSF: granulocyte macrophage colony stimulating factor”, the Repression of apoptosis (apoptosis) is given as “repress apoptosis”.

For C[C@@H]1C[C@@H]([C@H](O)CC2CC(=O)NC(=O)C2)C(=O)[C@@H](C)C1 [cycloheximide], the Repression of apoptosis (apoptosis) is given as “capable of repressing apoptosis”, the “Apoptosis of lymphocytic tumor cells” value (lymphocytic tumor cells) is given as “suppresses” and the “Apoptosis induction in HL-60 cells” value (HL-60 cells [2]) is given as “apoptosis induction”. For the same molecule, the “Apoptosis induction in acute leukemia cells” value (acute leukemia cells) was “apoptosis induction”.

In the case of CCOc1ccc(C(=O)N2CCN(c3ccc4c(c3)CCC(=O)N4)CC2)cc1 [Compound 5, 6-[4-(4-Ethoxybenzoyl)-1-piperazinyl]-3,4-dihydrocarbostyril], the “Induction of differentiation promoting effect” value (HL-60 cells [4]) is reported as 232.

In the case of COc1ccc(C(=O)N2CCN(c3ccc4[nH]c(=O)ccc4c3)CC2)cc1OC [Compound 7, 6-[4-(3,4-Dimethoxybenzoyl)-1-piperazinyl]carbostyril], the inhibition at 30 µg/mL (HL-60 cells [5]) is reported as 24.1% and the “Induction of differentiation promoting effect” value (HL-60 cells [4]) is reported as 898.

With COc1cc(C(=O)N2CCN(c3ccc4c(c3)NC(=O)CC4)CC2)cc(OC)c1OC [Compound 3, 7-[4-(3,4,5-Trimethoxybenzoyl)-1-piperazinyl]-3,4-dihydrocarbostyril] the “Induction of differentiation promoting effect” value (HL-60 cells [4]) was 384.

For COc1cc(C(=O)N2CCN(c3ccc4c(c3)CCC(=O)N4)CC2)cc(OC)c1OC [Compound 2, 6-[4-(3,4,5-Trimethoxybenzoyl)-1-piperazinyl]-3,4-dihydrocarbostyril], the inhibition at 30 µg/mL (HL-60 cells [5]) was 20.2%.

With COc1ccc(C(=O)N2CCN(c3cccc4c3NC(=O)CC4)CC2)cc1OC [Compound 8, 8-[4-(3,4-Dimethoxybenzoyl)-1-piperazinyl]-3,4-dihydrocarbostyril] the inhibition at 30 µg/mL (HL-60 cells [5]) was 24.9% and the “Induction of differentiation promoting effect” value (HL-60 cells [4]) was 344.

In the case of COc1ccc(C(=O)N2CCN(c3cccc4c3CCC(=O)N4)CC2)cc1OC [Compound 6, 5-[4-(3,4-Dimethoxybenzoyl)-1-piperazinyl]-3,4-dihydrocarbostyril], the “Induction of differentiation promoting effect” value (HL-60 cells [4]) is reported as 303.

B1: G-CSF: granulocyte colony stimulating factor (protein, UniProt P09919 31-207, looked up)
Granulocyte …: TPLGPASSLPQSFLLKCLEQVRKIQGDGAALQEKLVSECATYKLCHPEELVLLGHSLGIPWAPLSSCPSQALQLAGCLSQLHSGLFLYQGLLQALEGISPELGPTLDTLQLDVADFATTIWQQMEELGMAPALQPTQGAMPAFASAFQRRAGGVLVASHLQSFLEVSYRVLRHLAQP
In the case of B1, the Repression of apoptosis (apoptosis) is given as “repress apoptosis”.

B2: lymphotoxin (LT): lymphotoxin (LT) (protein, UniProt P01374 35-205, looked up)
Lymphotoxin-alpha: LPGVGLTPSAAQTARQHPKMHLAHSTLKPAAHLIGDPSKQNSLLWRANTDRAFLQDGFSLSNNSLLVPTSGIYFVYSQVVFSGKAYSPKATSSPLYLAHEVQLFSSQYPFHVPLLSSQKMVYPGLQEPWLHSMYHGAAFQLTQGDQLSTHTDGIPHLVLSPSTVFFGAFAL
For B2, the Induction of apoptosis (apoptosis) is given as “induced”.
